Laboratory results from ChEMBL document CHEMBL1136599, “Design, synthesis, and structure-activity relationships of substituted piperazinone-based transition state factor Xa inhibitors” (Bioorg Med Chem Lett, 2003).

Key:
Coagulation factor X = Coagulation factor X (Homo sapiens, UniProt P00742); test: In vitro inhibitory activity against factor Xa
Prothrombin = Prothrombin (Homo sapiens, UniProt P00734); test: In vitro inhibitory activity against serine protease thrombin

Coagulation factor X, sequence (P00742 41-179 limits assumed): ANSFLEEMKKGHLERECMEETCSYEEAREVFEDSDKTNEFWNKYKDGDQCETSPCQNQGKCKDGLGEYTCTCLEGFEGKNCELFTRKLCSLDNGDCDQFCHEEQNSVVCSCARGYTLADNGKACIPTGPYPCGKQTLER
Coagulation factor X, sequence (P00742 235-488 limits assumed): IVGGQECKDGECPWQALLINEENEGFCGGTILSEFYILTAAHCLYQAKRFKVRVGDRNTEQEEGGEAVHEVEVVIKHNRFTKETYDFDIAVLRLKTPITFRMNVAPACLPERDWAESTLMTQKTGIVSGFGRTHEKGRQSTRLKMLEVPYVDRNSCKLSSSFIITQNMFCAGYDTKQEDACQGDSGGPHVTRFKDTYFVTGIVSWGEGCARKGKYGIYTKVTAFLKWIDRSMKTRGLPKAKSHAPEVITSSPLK

Compound | IC50 (Coagulation factor X) | IC50 (Prothrombin)
N=C(N)NCCCC(NC(=O)CNC(=O)[C@@H](Cc1ccccc1)NS(=O)(=O)Cc1ccccc1)C(=O)c1nccs1 (stereo not given in full) | 2 nM | –
N=C(N)NCCC[C@H](NC(=O)CN1CCN(S(=O)(=O)Cc2ccccc2)[C@@H](Cc2ccccc2)C1=O)C(=O)c1nccs1 | 0.9 nM | 507 nM
CCOC(=O)C[C@H]1C(=O)N(CC(=O)N[C@@H](CCCN=C(N)N)C(=O)c2nccs2)CCN1S(=O)(=O)Cc1ccccc1 | 32 nM | 4000 nM
N=C(N)NCCC[C@H](NC(=O)CN1CCN[C@@H](CCCNC(=N)N)C1=O)C(=O)c1nccs1 | 20 nM | 12000 nM
N=C(N)NCCC[C@H](NC(=O)CN1CCN[C@H](Cc2ccccc2)C1=O)C(=O)c1nccs1 | – | 22000 nM
N=C(N)NCCC[C@@H](NS(=O)(=O)Cc1ccccc1)C(=O)NC(=O)CN[C@H](CCCNC(=N)N)C(=O)c1nccs1 | 13 nM | –
N=C(N)NCCC[C@H](NC(=O)CN1CCN(S(=O)(=O)Cc2ccccc2)[C@H](CO)C1=O)C(=O)c1nccs1 | 6 nM | 2000 nM
N=C(N)NCCC[C@H](NC(=O)CN1CCN(S(=O)(=O)Cc2ccccc2)[C@H](CCCNC(=N)N)C1=O)C(=O)c1nccs1 | 13 nM | 3000 nM
N=C(N)NCCC[C@H](NC(=O)CN1CCN(S(=O)(=O)Cc2ccccc2)[C@H](CCC(=O)O)C1=O)C(=O)c1nccs1 | 4 nM | 5000 nM
COC(=O)C[C@H]1C(=O)N(CC(=O)N[C@@H](CCCNC(=N)N)C(=O)c2nccs2)CCN1S(=O)(=O)Cc1ccccc1 | 85 nM | 1000 nM
N=C(N)NCCC[C@H](NC(=O)CN1CCN(S(=O)(=O)Cc2ccccc2)[C@H](CC(=O)N2CCCCC2)C1=O)C(=O)c1nccs1 | 37 nM | 8000 nM
N=C(N)NCCC[C@H](NC(=O)CN1CCN(S(=O)(=O)Cc2ccccc2)[C@@H](CC(=O)O)C1=O)C(=O)c1nccs1 | 370 nM | 325000 nM
N=C(N)NCCC[C@H](NC(=O)CN1CC(=O)N[C@H](CCCNC(=N)N)C1=O)C(=O)c1nccs1 | 21 nM | 200000 nM
N=C(N)NCCC[C@H](NC(=O)CN1CCN(S(=O)(=O)Cc2ccccc2)[C@H](CCC(=O)N2CCCCC2)C1=O)C(=O)c1nccs1 | 4 nM | 3000 nM
CCOC(=O)C[C@@H]1C(=O)N(CC(=O)N[C@@H](CCCN=C(N)N)C(=O)c2nccs2)CCN1S(=O)(=O)Cc1ccccc1 | 7 nM | 3000 nM
N=C(N)NCCC[C@H](NC(=O)CN1CCN(S(=O)(=O)Cc2ccccc2)[C@H](Cc2ccccc2)C1=O)C(=O)c1nccs1 | 59 nM | 2000 nM
N=C(N)NCCC[C@H](NC(=O)CN1CCN(S(=O)(=O)Cc2ccccc2)[C@@H](CCCNC(=N)N)C1=O)C(=O)c1nccs1 | 3 nM | 12000 nM
N=C(N)NCCC[C@H](NC(=O)CN1CCN(S(=O)(=O)Cc2ccccc2)[C@@H](CC(=O)N2CCCCC2)C1=O)C(=O)c1nccs1 | 154 nM | 60000 nM
COC(=O)CC[C@@H]1C(=O)N(CC(=O)N[C@@H](CCCNC(=N)N)C(=O)c2nccs2)CCN1S(=O)(=O)Cc1ccccc1 | 1 nM | 2000 nM
CS(=O)(=O)N1CCN(CC(=O)N[C@@H](CCCN=C(N)N)C(=O)c2nccs2)C(=O)[C@H]1Cc1ccccc1 | 144 nM | 2000 nM
N=C(N)NCCCC(NC(=O)CN1CCN(S(=O)(=O)Cc2ccccc2)CC1=O)C(=O)c1nccs1 (stereo not given) | 4 nM | –
N=C(N)NCCC[C@H](NC(=O)CN1C=CN[C@@H](CCCNC(=N)N)C1=O)C(=O)c1nccs1 | 307 nM | 140000 nM
N=C(N)NCCC[C@H](NC(=O)CN1CCN(S(=O)(=O)Cc2ccccc2)[C@H](CC(=O)O)C1=O)C(=O)c1nccs1 | 31 nM | 40000 nM
CS(=O)(=O)N1CCN(CC(=O)N[C@@H](CCCNC(=N)N)C(=O)c2nccs2)C(=O)[C@@H]1Cc1ccccc1 | 459 nM | 642 nM
N=C(N)NCCC[C@H](NC(=O)CN1CCN[C@@H](Cc2ccccc2)C1=O)C(=O)c1nccs1 | 888 nM | 2000 nM
N=C(N)NCCC[C@H](NC(=O)CN1CC(=O)N[C@@H](CCCNC(=N)N)C1=O)C(=O)c1nccs1 | 11 nM | 150000 nM
COC(=O)C[C@@H]1C(=O)N(CC(=O)N[C@@H](CCCNC(=N)N)C(=O)c2nccs2)CCN1S(=O)(=O)Cc1ccccc1 | 8 nM | 5000 nM
